Test results reported in patent US20050054587A1, “Novel therapeutic indication of azithromycin for treatment of non-infective inflamatory diseases” (priority 2001, published 2005).

Key:
Type in all cases: in vivo, human
myeloperoxidase (MPO) [1] = assay: Myeloperoxidase density on digital image of blood smear, healthy volunteer trial; conditions: healthy volunteers, azithromycin 3×500 mg, baseline 105 ± 13
Protocol: (§1) A trial on healthy volunteers was conducted and the influence of azithromycin given in a dosage of 3×500 mg on selected inflammation-relevant parameters was followed up.
(§2) Each subject received two standard 250 mg capsules of azithromycin (Sumamed®, PLIVA Zagreb) on three consecutive days. Immediately before the treatment and 2 h and 30 min, 24 h and 28 days after the third and last dose of azithromycin blood was collected from the cubital vein into EDTA-containing tubes. Aliquots were taken for cell counting, smear preparation, polymorphonuclear cell and serum isolation.
(§3) The activity of MPO was assessed from the intensity of staining of neutrophils in blood smears and in cell lysates by ELISA. After fixation in ethanol-formaldehyde, smears were incubated in a substrate solution containing hydrogen peroxide and benzidine (SIGMA). After incubation, smears were counterstained with Giemsa solution. MPO value positivity_of 100 granulocytes was evaluated and scored from 0 to 4+ on the basis of the intensity of the precipitated dye in cytoplasm. Therefore, the value of the score could be from 0 to 400. Normal values of score range (290-390) were taken from this study before azithromycin administration. MPO activity was also evaluated on the digital image of smear taken with a digital camera under the high magnification (×1000) of light microscope. MPO activities in blood smear neutrophils decreased from 2 h and 30 min to 24 h after the last azithromycin dose and returned to baseline after 28 days (Table 1). The change in neutrophil enzyme protein followed the same pattern as that in intracellular enzyme activity, decreasing from 2 h and 30 min to 24 h after the last dose of azithromycin and returning to baseline after 28 days. Both methodological approaches of MPO determination confirmed each other. Degranulation presented with lower MPO neutrophil density determined_with cytochemistry was associated with lower MPO ELISA concentrations in neutrophil lysates.

myeloperoxidase (MPO) [2] = assay: MPO enzyme protein by ELISA in neutrophil lysates; conditions: healthy volunteers, azithromycin 3×500 mg, baseline 54.22 ± 12.61
Protocol: as §1, §2
as §3, with “Both methodological approaches of MPO determination confirmed each other.” left out
Proteins in PMN samples were determined according to the method of Bradford (Anal. Biochem. (1976) 72: 248-254) using bovine serum albumin as a standard.

[3] = system: N-acetyl-β-D-glucosaminidase (NAGA); assay: NAGA activity in neutrophil (PMN) lysates, fluorimetric; conditions: healthy volunteers; for NAGA (PMN): azithromycin 3×500 mg, baseline 4.15 ± 01.6
Protocol: as §1, §2
(§4) Glycosidases are enzymes that catalyse hydrolysis of glycosidic bonds of oligosacharides and other glycosides. They are specific to the glycosidic part of substrate molecule. N-acetyl-β-D-glucosaminidase (NAGA) and β-glucuronidase are such enzymes. They are lysosomal enzymes, both located in azurophilic (primary; peroxidase-positive) granules of neutrophils. Since degranulation of neutrophils is present during inflammation, many authors choose these enzymes as markers of degranulation and for estimation of neutrophil reactivity. The catalytic concentration of both enzymes in serum and in neutrophil lysates was determined using the fluorimetric method described by O'Brien et al. (New Engl. J. Med. (1970) 283: 15-20) for NAGA and Glaser & Sly (J. Lab. Clin. Med. (1973) 82: 969) for β-glucuronidase.

[4] = system: N-acetyl-β-D-glucosaminidase (NAGA); assay: NAGA activity in serum, fluorimetric; conditions: healthy volunteers; for NAGA (serum): azithromycin 3×500 mg, baseline 9.16 ± 1.6
Protocol: as §1, §2, §4

IL-1 = assay: Serum IL-1 concentration, ELISA; conditions: healthy volunteers, azithromycin 3×500 mg, baseline 0.291 ± 0.11
Protocol: as §1, §2
(§5) Cytokine and chemokine concentrations were determined using ELISA kits. […] Rapid and pronounced decreases in the plasma concentrations of the neutrophil-stimulating chemokine, IL-8, and GR0-α were observed 2 h and 30 min and 24 h after the last dose of azithromycin (Table 1. The concentration of IL-8 returned essentially to baseline after 28 days, while that of GRO-[…] was decreased at this time.

IL-8 = assay: Serum IL-8 concentration, ELISA; conditions: healthy volunteers, azithromycin 3×500 mg, baseline 29.47 ± 15.44
Protocol: as §1, §2, §5

sVCAM = assay: Serum sVCAM concentration, ELISA; conditions: healthy volunteers, azithromycin 3×500 mg, baseline 13.59 ± 2.90
Protocol: as §1, §2
For quantitative determination of serum concentration of human sVCAM, an ELISA kit was used (R&D systems, UK)

glutathione reductase = assay: Glutathione reductase activity in PMN lysates (BIOXYTECH GR-340); conditions: healthy volunteers, azithromycin 3×500 mg, baseline 9.63 ± 1.16
Protocol: as §1, §2
Glutathione reductase is an ubiquitous enzyme that catalyses the reduction of oxidised glutathione (GSSG) to glutathione (GSH). Glutathione reductase is essential for the glutathione redox cycle that maintains adequate levels of reduced cellular GSH. GSH serves as an antioxidant, reacting with free radicals and organic peroxides, in amino acid transport, and as a substrate for the GSHPx and glutathione S-transferases in the detoxification of organic peroxides and metabolism of xenobiotics. Glutathione reductase was determined using the BIOXYTECH® GR-340™ colorimetric assay for glutathione reductase (OXIS International, Inc.). Briefly, oxidation of NADPH to NADP^+ is catalysed by a limiting concentration of glutathione reductase.

[5] = system: azurophilic granules of neutrophils; assay: Release of glycosidases from azurophilic granules (NAGA and β-glucuronidase); conditions: healthy volunteers, 3×500 mg; within 24 hours after the last dose
Protocol: as §1, §2
as §4, with “β-glucuronidase. […]” for “β-glucuronidase.”

[6] = 3×500 mg, 24 hours after the last dose

CC[C@H]1OC(=O)[C@H](C)[C@@H](O[C@H]2C[C@@](C)(OC)[C@@H](O)[C@H](C)O2)[C@H](C)[C@@H](O[C@@H]2O[C@H](C)C[C@H](N(C)C)[C@H]2O)[C@](C)(O)C[C@@H](C)CN(C)[C@H](C)[C@@H](O)[C@]1(C)O [azithromycin, 9-deoxo-9-dihydro-9a-methyl-9a-aza-9a-homoerythromycin A]
myeloperoxidase (density) (myeloperoxidase (MPO) [1]; 2 h and 30 min after last dose): 130 ± 16 | myeloperoxidase (density) (myeloperoxidase (MPO) [1]; 24 hours after last dose): 131 ± 17 | myeloperoxidase (density) (myeloperoxidase (MPO) [1]; 28 days after last dose): 115 ± 19 | myeloperoxidase (PMN) (myeloperoxidase (MPO) [2]; 2 h and 30 min after last dose): 70.85 ± 19.91 μg/mg protein | myeloperoxidase (PMN) (myeloperoxidase (MPO) [2]; 24 hours after last dose): 26.74 ± 2.51 μg/mg protein | myeloperoxidase (PMN) (myeloperoxidase (MPO) [2]; 28 days after last dose): 70.01 ± 17.62 μg/mg protein | decrease in NAGA in granulocytes ([3]; 3×500 mg, 2 h and 30 min after the last dose, vs initial values): about 70% | NAGA activity in PMN lower compared to initial values [3, 6]: about 40% | NAGA activity in PMN increase from the 2 h and 30 min value ([3]; 3×500 mg, 24 hours later): about 30% | activity of NAGA (PMN) increased over the initial values ([3]; 3×500 mg, after 28 days): 40% | NAGA (PMN) ([3]; 2 h and 30 min after last dose): 1.13 ± 0.72 nmol × 10^−6 cells × min^−1 | NAGA (PMN) ([3]; 24 hours after last dose): 2.62 ± 1.6 nmol × 10^−6 cells × min^−1 | NAGA (PMN) ([3]; 28 days after last dose): 5.95 ± 3.7 nmol × 10^−6 cells × min^−1 | increase of activity of NAGA in serum vs initial values ([4]; 3×500 mg, 2 h and 30 min after the last dose): about 30% | activity of NAGA in serum higher than the initial values [4, 6]: approximately 50% | serum NAGA values higher than initial values ([4]; 3×500 mg, 28 days after the last dose): 70% | NAGA (serum) ([4]; 2 h and 30 min after last dose): 11.52 ± 2.2 µmol/L/min | NAGA (serum) ([4]; 24 hours after last dose): 13.7 ± 1.5 µmol/L/min | NAGA (serum) ([4]; 28 days after last dose): 14.87 ± 1.9 µmol/L/min | IL-1 (serum) (IL-1; 2 h and 30 min after last dose): 0.533 ± 0.15 pg/mL | IL-1 (serum) (IL-1; 24 hours after last dose): 1.07 ± 0.19 pg/mL | IL-1 (serum) (IL-1; 28 days after last dose): 0.29 ± 0.20 pg/mL | IL-8 (serum) (IL-8; 2 h and 30 min after last dose): 10.61 ± 3.81 pg/mL | IL-8 (serum) (IL-8; 24 hours after last dose): 14.60 ± 10.75 pg/mL | IL-8 (serum) (IL-8; 28 days after last dose): 23.03 ± 19.72 pg/mL | sV-CAM (serum) (sVCAM; 2 h and 30 min after last dose): 12.21 ± 4.12 ng/mL | sV-CAM (serum) (sVCAM; 24 hours after last dose): 10.29 ± 2.12 ng/mL | sV-CAM (serum) (sVCAM; 28 days after last dose): 10.74 ± 2.05 ng/mL | GLUTATHION REDUCTASE (PMN) (glutathione reductase; 2 h and 30 min after last dose): 7.39 ± 1.23 mU/10^6PMN | GLUTATHION REDUCTASE (PMN) (glutathione reductase; 24 hours after last dose): 7.91 ± 0.87 mU/10^6PMN | GLUTATHION REDUCTASE (PMN) (glutathione reductase; 28 days after last dose): 11.27 ± 2.24 mU/10^6PMN | release of enzymes from azurophilic granules [5]: 40-50%
